This test deals with T1, Histone deacetylase 8 (Homo sapiens, UniProt Q9BY41).
T1 sequence (Q9BY41 whole entry): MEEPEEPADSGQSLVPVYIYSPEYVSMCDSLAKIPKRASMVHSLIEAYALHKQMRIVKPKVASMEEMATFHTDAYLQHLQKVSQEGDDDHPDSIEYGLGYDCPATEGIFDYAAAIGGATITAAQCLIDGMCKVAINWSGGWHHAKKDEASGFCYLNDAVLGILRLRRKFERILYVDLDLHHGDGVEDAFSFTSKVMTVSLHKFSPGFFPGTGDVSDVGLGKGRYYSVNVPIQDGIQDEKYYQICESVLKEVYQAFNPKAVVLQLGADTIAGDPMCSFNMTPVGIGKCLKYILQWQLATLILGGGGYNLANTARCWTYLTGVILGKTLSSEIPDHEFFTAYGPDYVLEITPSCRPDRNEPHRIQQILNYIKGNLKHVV
The experiment in a line: Inhibition of human recombinant HDAC8 using fluorescent acetylated substrate.

pIC50, pKi: −log10 of the molar value.

As for `[N-]=[N+]=Nc1ccc(-c2csc(NC(=O)CCCCCCC(=O)NO)n2)cc1`, the pIC50 is 5.57 and the pKi is 5.61.
`[N-]=[N+]=NCc1cc(COc2ccc(NC(=O)CCCCCCC(=O)NO)cc2)cc(N=[N+]=[N-])c1`: the pIC50 is 5.13 and the pKi is 5.18.
